Test results from patent US9447029B2, “Fluorinated arylalkylaminocarboxamide derivatives” (NEWRON PHARMACEUTICALS S.P.A., priority 2011, dated 2016).
Where a name gives a salt, the structure may show the parent alone.

These compounds were tested on TTXs sodium channels (ND7/23 cells) (assay: TTXs-sodium channel influx assay (fluorescence, membrane potential kit)). Settings: veratridine 100 μM.
Assay type: cell-based, rat
Procedure: ND7/23 rat dorsal root ganglion-derived cell line endogenously expresses a mixed population of TTXs sodium channels (such as Nav1.3, Nav1.2, Nav1.1, Nav1.6). These cells lack of TTXr sodium channels as shown by the absence of their respective transcripts. ND7/23 cells are grown in Dulbecco's Modified Eagle Medium (DMEM, Invitrogen, CA—USA) supplemented with 10% Foetal Bovine Serum (FBS, Invitrogen, CA—USA) and 1 mM sodium piruvate. The cells are seeded at 50,000 cells/well on 96 poly-L-lysine-coated plates and further incubated for 18-24 h before use.
The Membrane Potential Kit Assay (Molecular Devices, CA—USA), based on a negatively charged fluorescent dye able to monitor changes in membrane potential caused by the sodium influx due to the channel opening, is used for the assay.
Cells are incubated with the dye loading for 30 minutes at 25° C. Then, 100 nM of the toxin Anemonia sulcata (used as enhancer of the channel opener response) alone or in the presence of TTX (as reference standard) or test compound are added for further 15 minutes.
The fluorescence (excitation: 530 nm, emission: 565 nm wavelength) is measured before and after (40-45 s) the automated injection of the sodium channel opener veratridine (100 μM) using a Victor plate reader (Perkin Elmer, MA—USA).
The inhibition curves are calculated from 5 concentrations, each in triplicate, and the IC50 determined using a linear regression analysis.
The results, obtained with some compounds which are representative of the entire class of compounds of the invention are reported in Table 1.
In the case of `CCCCOc1cccc(C(F)(F)CNCC(=O)N(C)C)c1` [Example 1-1, 2-[2,2-Difluoro-2-(3-butoxyphenyl)-ethylamino]-N,N-dimethyl-acetamide, hydrochloride], the IC50 is reported as 1000 nM.
Work on `CCCCCOc1cccc(C(F)(F)CNCC(=O)N(C)C)c1` [Example 1-2, 2-[2,2-Difluoro-2-(3-pentyloxyphenyl)-ethylamino]-N,N-dimethyl-acetamide, hydrochloride] yielded an IC50 of 1300 nM.
Work on `CCCCOc1cccc(C(F)(F)CNCC(=O)N(CCC)CCC)c1` [Example 1-3, 2-[2,2-Difluoro-2-(3-butoxyphenyl)-ethylamino]-N,N-dipropyl-acetamide, hydrochloride] yielded an IC50 of 580 nM.
Work on `CCCCCCOc1cccc(C(F)(F)CNCC(=O)N(C)C)c1` [Example 1-6, 2-[2,2-Difluoro-2-(3-hexyloxyphenyl)-ethylamino]-N,N-dimethyl-acetamide, hydrochloride] yielded an IC50 of 140 nM.
`CN(C)C(=O)CNCC(F)(F)c1cccc(OCCCC(F)(F)F)c1` [Example 1-7, 2-{2,2-Difluoro-2-[3-(4,4,4-trifluorobutoxy)-phenyl]-ethylamino}-N,N-dimethyl-acetamide, hydrochloride] was tested, and the IC50 was 3600 nM.
In the case of `CN(C)C(=O)CNCC(F)(F)c1cccc(OCc2ccccc2)c1` [Example 1-14, 2-[2,2-Difluoro-2-(3-benzyloxyphenyl)-ethylamino]-N,N-dimethyl-acetamide, hydrochloride], the IC50 is reported as 1200 nM.
For `CCCCOc1cccc(C(F)(F)CNCC(=O)N2CCCC2)c1` [Example 1-15, 2-[2,2-Difluoro-2-(3-butoxyphenyl)-ethylamino]-1-(pyrrolidin-1-yl)-ethanone, hydrochloride], the IC50 was 1100 nM.
In the case of `O=C(CNCC(F)(F)c1cccc(OCCCC(F)(F)F)c1)N1CCCC1` [Example 1-18, 2-{2,2-Difluoro-2-[3-(4,4,4-trifluorobutoxy)-phenyl]-ethylamino}-1-(pyrrolidin-1-yl)-ethanone], the IC50 is reported as 950 nM.
In the case of `O=C(CNCC(F)(F)c1cccc(OCCCC(F)(F)F)c1)N1CCOCC1` [Example 1-21, 2-{2,2-Difluoro-2-[3-(4,4,4-trifluorobutoxy)-phenyl]-ethylamino}-1-(morpholin-4-yl)-ethanone, hydrochloride], the IC50 is reported as 7200 nM.
In the case of `CCCCOc1cccc(C(F)(F)CNCC(=O)N2CCN(C)CC2)c1` [Example 1-26, 2-[2,2-Difluoro-2-(3-butoxyphenyl)-ethylamino]-1-(4-methylpiperazin-1-yl)-ethanone, hydrochloride], the IC50 is reported as 23200 nM.
Compound `CN1CCN(C(=O)CNCC(F)(F)c2cccc(OCCCC(F)(F)F)c2)CC1` [Example 1-28, 2-{2,2-Difluoro-2-[3-(4,4,4-trifluorobutoxy)-phenyl)-ethylamino}-1-(4-methylpiperazin-1-yl)-ethanone, hydrochloride] has an IC50 of 3200 nM.
`CCCCOc1cccc(C(F)(F)CNCC(=O)N2CCCCC2)c1` [Example 1-29, 2-[2,2-Difluoro-2-(3-butoxyphenyl)-ethylamino]-1-(piperidin-1-yl)-ethanone, hydrochloride] was tested, and the IC50 was 1800 nM.
`CCCCOc1cccc(C(F)(F)CNCC(=O)N(CC)CC)c1` [Example 1-32, 2-[2,2-Difluoro-2-(3-butoxyphenyl)-ethylamino]-N,N-diethyl-acetamide, hydrochloride] was tested, and the IC50 was 2800 nM.
With `CCCCOc1cccc(C(F)(F)CNCC(=O)N2CCC2)c1` [Example 1-42, 2-[2,2-Difluoro-2-(3-butoxyphenyl)-ethylamino)-1-(azetidin-1-yl)-ethanone, hydrochloride] the IC50 was 5000 nM.
With `CCCCOc1cccc(C(F)(F)CNC(C)C(=O)N(C)C)c1` (stereo not drawn) [Example 2-1, 2-[2,2-Difluoro-2-(3-butoxyphenyl)-ethylamino]-N,N-dimethyl-propanamide, hydrochloride] the IC50 was 20000 nM.
`CCCCOc1cccc(C(F)(F)CNC(COC)C(=O)N(C)C)c1` (stereo not drawn) [Example 2-2, 2-[2,2-Difluoro-2-(3-butoxyphenyl)-ethylamino]-3-methoxy-N,N-dimethyl-propanamide] gave an IC50 of 6200 nM.
With `CCCCOc1cccc(C(F)(F)CN(C)CC(=O)N(C)C)c1` [Example 3-1, 2-{[2,2-Difluoro-2-(3-butoxyphenyl)-ethyl]-methylamino}-N,N-dimethyl-acetamide, hydrochloride] the IC50 was 2300 nM.
With `CCCCOc1cccc(C(F)(F)CN(CCOC)CC(=O)N(C)C)c1` [Example 3-3, 2-{[2,2-Difluoro-2-(3-butoxyphenyl)-ethyl]-(2-methoxyethyl)-amino}-N,N-dimethyl-acetamide, hydrochloride] the IC50 was 1400 nM.
`CCCCOc1cccc(C(F)CNCC(=O)N(C)C)c1` (stereo not drawn) [Example 4-1, 2-[2-Fluoro-2-(3-butoxyphenyl)-ethylamino]-N,N-dimethyl-acetamide, hydrochloride] showed an IC50 of 1500 nM.

What follows are compounds tested against CYP2D6 (Homo sapiens (Human), UniProt P10635) (assay: Inhibition of Cytochrome P4502D6 (CYP2D6) using Supersomes). Settings: AMMC substrate, read-out: IC50 (Fluorinated derivative).
Chain of CYP2D6 (P10635 whole entry): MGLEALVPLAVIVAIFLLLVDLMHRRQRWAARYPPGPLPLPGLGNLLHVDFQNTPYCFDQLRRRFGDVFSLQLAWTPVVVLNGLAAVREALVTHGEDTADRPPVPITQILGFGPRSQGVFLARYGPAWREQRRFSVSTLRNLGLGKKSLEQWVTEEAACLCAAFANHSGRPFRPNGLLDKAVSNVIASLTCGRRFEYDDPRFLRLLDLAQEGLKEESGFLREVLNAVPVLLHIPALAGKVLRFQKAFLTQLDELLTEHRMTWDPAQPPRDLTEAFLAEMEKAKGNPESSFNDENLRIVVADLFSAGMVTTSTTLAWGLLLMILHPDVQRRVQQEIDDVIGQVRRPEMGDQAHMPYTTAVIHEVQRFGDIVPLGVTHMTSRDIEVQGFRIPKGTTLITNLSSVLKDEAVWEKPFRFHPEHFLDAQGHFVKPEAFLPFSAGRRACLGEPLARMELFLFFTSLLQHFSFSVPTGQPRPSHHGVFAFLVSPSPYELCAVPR
Assay type: in vitro ADME
Procedure: The inhibition of Cytochrome P4502D6 (CYP2D6) is assessed by performing in vitro inhibition studies using Supersomes, microsomes derived from baculovirus infected insect cells; the baculoviruses are engineered to express one or more drug metabolizing enzyme cDNAs. Supersomes catalyze the same enzymatic reactions as human liver microsome enzymes, but they contain much higher enzyme activity than other microsome sources (Crespi C. L. and Penman B. W., Advances Pharmacology, 43, 171-188 (1997); Crespi C. L. and Miller V. P., Analytical Biochemistry, 248, 188-190 (1997)).
Kits with Supersomes are Supplied by GENTEST (MA, USA).
Test compound is dissolved in DMSO 500× the highest final concentration desired in the IC50 assay. 30 ml of deionized water is pre-warmed to 37° C. and all kit components are placed on ice. For each well of column 1, 149.4 μL of NADPH-Cofactor Mix, (187.5 μl of Cofactors, 150 μl of G6PDH, 100 μl of Control Protein and 14.56 ml of 37° C. water) are added.
In each well from Column 2 to 12, 100 μl of Cofactor/DMSO mix (40 μL DMSO in 9.96 ml of NADPH-Cofactor Mix) are added. To each well of column 1, 0.6 μl of test compound or positive control are added. 50 μl from each well of column 1 are serially diluted to column 8. The extra 50 μl from column 8 are discarded. The plate is covered and pre-incubated at 37° C. for 10 minutes.
Preparation of enzyme/substrate mix: 7.92 ml of pre-warmed deionized water, 75 μl of enzyme, 3 μl of 10 mM AMMC and 2 ml of pre-warmed buffer are mixed.
After the pre-incubation time (10′), 100 μl of enzyme/substrate mix to each well from column 1 to 10 are added. The plate is incubated at 37° C. for 30 minutes. After this time, 75 μl of Stop Reagent to each well are added. For blank controls, 100 μl of enzyme/substrate mix are added to columns 11 and 12.
Plates are read at the Victor plate reader (Perkin Elmer, MA—USA) at 390 nm excitation and 460 nm emission wavelengths.
Compound `CCCCCOc1cccc(C(F)(F)CNCC(=O)N(C)C)c1` [Example 1-2, 2-[2,2-Difluoro-2-(3-pentyloxyphenyl)-ethylamino]-N,N-dimethyl-acetamide, hydrochloride] has an IC50 greater than 40000 nM.
Work on `CCCCOc1cccc(C(F)(F)CNCC(=O)N(CCC)CCC)c1` [Example 1-3, 2-[2,2-Difluoro-2-(3-butoxyphenyl)-ethylamino]-N,N-dipropyl-acetamide, hydrochloride] yielded an IC50 of 23900 nM.
For `O=C(CNCC(F)(F)c1cccc(OCCCC(F)(F)F)c1)N1CCOCC1` [Example 1-21, 2-{2,2-Difluoro-2-[3-(4,4,4-trifluorobutoxy)-phenyl]-ethylamino}-1-(morpholin-4-yl)-ethanone, hydrochloride], the IC50 was greater than 40000 nM.
`CCCCOc1cccc(C(F)(F)CNC(C)C(=O)N(C)C)c1` (stereo not drawn) [Example 2-1, 2-[2,2-Difluoro-2-(3-butoxyphenyl)-ethylamino]-N,N-dimethyl-propanamide, hydrochloride] showed an IC50 greater than 40000 nM.

Same assay, conditions: AMMC substrate, reference standards of the closest prior art, read-out: IC50 (Corresponding de-fluorinated derivative)
`CN(C)C(=O)CNCCc1cccc(OCc2ccccc2)c1` [2-[2-(3-Benzyloxyphenyl)-ethylamino]-N,N-dimethyl-acetamide, hydrochloride] showed an IC50 of 10600 nM.
`CCCCOc1cccc(CCNCC(=O)N2CCCCC2)c1` [2-[2-(3-Butoxyphenyl)-ethylamino]-1-(piperidin-1-yl)-ethanone, hydrochloride] was tested, and the IC50 was 1100 nM.
`CCCCOc1cccc(CCNCC(=O)N2CCCC2)c1` [2-[2-(3-Butoxyphenyl)-ethylamino]-1-(pyrrolidin-1-yl)-ethanone, hydrochloride] showed an IC50 of 3000 nM.
With `CCCCOc1cccc(CCNCC(=O)N(CC)CC)c1` [2-[2-(3-Butoxyphenyl)-ethylamino]-N,N-diethyl-acetamide, hydrochloride] the IC50 was 2500 nM.
`CCCCOc1cccc(CCNCC(=O)N(C)C)c1` [2-[2-(3-Butoxyphenyl)-ethylamino]-N,N-dimethyl-acetamide, hydrochloride] was tested, and the IC50 was 5800 nM.
With `CCCCOc1cccc(CCNC(C)C(=O)N(C)C)c1` (stereo not drawn) [2-[2-(3-Butoxyphenyl)-ethylamino]-N,N-dimethyl-propanamide, hydrochloride] the IC50 was 5800 nM.
Work on `CCCCOc1cccc(CCNCC(=O)N(CCC)CCC)c1` [2-[2-(3-Butoxyphenyl)-ethylamino]-N,N-dipropyl-acetamide, hydrochloride] yielded an IC50 of 700 nM.
Compound `CCCCCCOc1cccc(CCNCC(=O)N(C)C)c1` [2-[2-(3-Hexyloxyphenyl)-ethylamino]-N,N-dimethyl-acetamide, hydrochloride] has an IC50 of 900 nM.
`CCCCCOc1cccc(CCNCC(=O)N(C)C)c1` [2-[2-(3-Pentyloxyphenyl)-ethylamino]-N,N-dimethyl-acetamide, hydrochloride] was tested, and the IC50 was 3500 nM.
`O=C(CNCCc1cccc(OCCCC(F)(F)F)c1)N1CCCC1` [2-{2-[3-(4,4,4-trifluorobutoxy)-phenyl]-ethylamino}-1-(pyrrolidin-1-yl)-ethanone, hydrochloride] showed an IC50 of 5000 nM.
`O=C(CNCCc1cccc(OCCCC(F)(F)F)c1)N1CCOCC1` [2-{2-[3-(4,4,4-trifluorobutoxy)phenyl]-ethylamino}-1-(morpholin-4-yl)-ethanone, hydrochloride] showed an IC50 of 1800 nM.
Compound `CCCCOc1cccc(CCN(CCOC)CC(=O)N(C)C)c1` [2-{[2-(3-Butoxyphenyl)-ethyl]-(2-methoxyethyl)-amino}-N,N-dimethyl-acetamide, hydrochloride] has an IC50 of 3400 nM.
Compound `CCCCOc1cccc(CCN(CCCOC)CC(=O)N(C)C)c1` [2-{[2-(3-Butoxyphenyl)-ethyl]-(3-methoxypropyl)-amino}-N,N-dimethyl-acetamide, hydrochloride] has an IC50 of 7300 nM.
